Patent US20240165243A1, “EGFR DEGRADERS AND METHODS OF USE” (BeiGene Switzerland GmbH, priority 2021, published 2024)

How the values were obtained:
Assay type in all cases: cell-based
[1] = target: EGFR (L858R/T790M/C797S) (Homo sapiens, UniProt P00533, C797S/L858R/T790M); assay: Cell degradation HTRF assay, BaF3-LTC cells; parameters: expressed in transfected cells; host or cells: BaF3-LTC; details: 16 h treatment; for DC50: HTRF; for Dmax: maximum percentage of degradation
Method: (§1) Cell Degradation of Example 1-28
(§2) BaF3-LTC (L858R/T790M/C797S) and BaF3-DTC (Del19/T790M/C797S) cells are treated with compounds diluted in 0.2% DMSO cell culture medium and incubate for 16 h, 37° C., 5% CO2. The final concentration of compounds in all assay is start with 10 uM, 4-fold dilution, total 8 doses were included.
(§3) After 16 h treatment, add HTRF lysis buffer to each well; seal the plate and incubate 1 hour at room temperature on a plate shaker; Once the cells are lysed, 16 μL of cell lysate are transferred to a PE 384-well HTRF detection plate; 4 μL of pre-mixed HTRF antibodies are added to each well; Cover the plate with a plate sealer, spin 1000 rpm for 1 min, Incubate overnight at room temperature; Read on BMG PheraStar with HTRF protocol (337 nm-665 nm-620 nm). The inhibition (degradation) percentage of the compound was calculated by the following equation:
(§4) Inhibition percentage of Compound=100−100×(Signal−low control)/(High control−low control), wherein signal=each test compound group.
(§5) High control=Cell group with added DMSO and without compound, indicating microplate readings without EGFR degradation;
(§6) Dmax is the maximum percentage of inhibition (degradation).
(§7) The IC50 (DC50) value of a compound can be obtained by fitting the following equation
(§8) Y=Bottom+(TOP−Bottom)/(1+((C50/X)^hillslope))
(§9) Wherein, X and Y are known values, and IC50, Hillslope, Top and Bottom are the parameters obtained by fitting with software. Y is the inhibition percentage (calculated from the equation), X is the concentration of the compound; IC50 is the concentration of the compound when the 50% inhibition is reached. The smaller the IC50 value is, the stronger the inhibitory ability of the compound is. Vice versa, the higher the IC50 value is, the weaker the ability the inhibitory ability of the compound is; Hillslope represents the slope of the fitted curve, generally around 1*; Bottom represents the minimum value of the curve obtained by data fitting, which is generally 000±20%; Top represents the maximum value of the curve obtained by data fitting, which is generally 100%±20%. The experimental data were fitted by calculating and analyzing with Dotmatics data analysis software. When Dmax<50%, DC50 will be automatically assigned as larger than […].

[2] = test system: EGFR (Del19/T790M/C797S); assay: Cell degradation HTRF assay, BaF3-DTC cells; details: 16 h treatment; for DC50: HTRF; for DTC Dmax (%): maximum percentage of degradation
Method: as §1, §2, §3, §4, §5, §6, §7, §8, §9

[3] = test system: EGFR (Del19/T790M/C797S); assay: Cell degradation HTRF assay, H1975-clone #28 cells; details: H1975-clone #28 (Del19/T790M/C797S) cells, 16 h treatment; for DC50: HTRF, read-out: H1975-clone#28 DTC DC50; for H1975-clone#28 DTC Dmax (%): maximum percentage of degradation
Summary of the method: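 H1975 clones #25 and #28 were treated 16 h at 37° C, 5% CO2 with 8 doses (top 10 uM, 5-fold dilution) in 0.2% DMSO medium. EGFR in lysates read by HTRF (665/620 nm); degradation % relative to DMSO high control; DC50 from 4-parameter fit, Dmax = maximal degradation.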

EGFR (L858R/T790M/C797S), sequence (P00533 25-1210 T790M/C797S/L858R): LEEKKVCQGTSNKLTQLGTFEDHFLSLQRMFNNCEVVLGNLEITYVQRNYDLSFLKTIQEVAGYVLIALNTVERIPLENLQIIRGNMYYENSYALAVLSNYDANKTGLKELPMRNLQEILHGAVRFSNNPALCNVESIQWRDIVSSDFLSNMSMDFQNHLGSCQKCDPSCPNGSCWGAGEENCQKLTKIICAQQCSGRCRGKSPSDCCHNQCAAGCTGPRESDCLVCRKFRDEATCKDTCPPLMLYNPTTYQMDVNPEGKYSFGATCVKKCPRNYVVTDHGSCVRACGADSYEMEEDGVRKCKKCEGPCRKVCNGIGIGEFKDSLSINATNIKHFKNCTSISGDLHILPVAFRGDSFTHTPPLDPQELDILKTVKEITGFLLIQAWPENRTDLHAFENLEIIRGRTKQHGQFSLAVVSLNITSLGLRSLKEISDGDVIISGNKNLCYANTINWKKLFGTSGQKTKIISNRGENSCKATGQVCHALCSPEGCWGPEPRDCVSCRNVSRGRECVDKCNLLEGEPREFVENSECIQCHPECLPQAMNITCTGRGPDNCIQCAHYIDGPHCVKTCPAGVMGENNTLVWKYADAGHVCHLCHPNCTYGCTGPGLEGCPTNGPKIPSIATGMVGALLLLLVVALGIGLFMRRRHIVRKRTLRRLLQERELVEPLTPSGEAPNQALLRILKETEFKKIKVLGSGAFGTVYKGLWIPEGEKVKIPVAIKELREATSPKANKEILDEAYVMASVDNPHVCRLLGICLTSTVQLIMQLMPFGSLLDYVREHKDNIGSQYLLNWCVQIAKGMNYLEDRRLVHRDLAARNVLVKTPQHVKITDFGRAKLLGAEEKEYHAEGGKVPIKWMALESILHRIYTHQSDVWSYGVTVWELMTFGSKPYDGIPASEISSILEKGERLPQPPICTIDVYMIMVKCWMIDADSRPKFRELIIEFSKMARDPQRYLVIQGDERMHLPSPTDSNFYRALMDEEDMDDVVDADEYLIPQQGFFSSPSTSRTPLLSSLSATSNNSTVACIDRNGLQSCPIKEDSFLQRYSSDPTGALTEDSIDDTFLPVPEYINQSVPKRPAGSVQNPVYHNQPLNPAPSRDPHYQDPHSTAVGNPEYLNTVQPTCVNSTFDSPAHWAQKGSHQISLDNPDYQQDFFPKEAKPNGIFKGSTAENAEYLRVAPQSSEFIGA

## CCc1cc(Nc2ncc(Br)c(Nc3cnc4c(C)cccc4c3P(C)(C)=O)n2)c(OC)cc1N1CCC(N2CCN(CCC3CCN(c4cc(F)c(C5CCC(=O)NC5=O)c(F)c4)CC3)CC2)CC1 (stereo not drawn) [Example 8, 3-(4-(4-(2-(4-(1-(4-((5-bromo-4-((4-(dimethylphosphoryl)-8-methylquinolin-3-yl)amino)pyrimidin-2-yl)amino)-2-ethyl-5-methoxyphenyl)piperidin-4-yl)piperazin-1-yl)ethyl)piperidin-1-yl)-2,6-difluorophenyl)piperidine-2,6-dione]
[1]
  DC50: 30.2 nM
  Dmax: 89.6%
[2]
  DC50: 11.8 nM
  DTC Dmax (%): 96.88%

## CCc1cc(Nc2ncc(Br)c(Nc3cnc4ccccc4c3P(C)(C)=O)n2)c(OC)cc1N1CCC(N2CCN(CCc3ccc4c(c3)C3(CC3)C(=O)N4C3CCC(=O)NC3=O)CC2)CC1 (stereo not drawn) [Example 24, 3-(5′-(2-(4-(1-(4-((5-bromo-4-((4-(dimethylphosphoryl)quinolin-3-yl)amino)pyrimidin-2-yl)amino)-2-ethyl-5-methoxyphenyl)piperidin-4-yl)piperazin-1-yl)ethyl)-2′-oxospiro[cyclopropane-1,3′-indolin]-1′-yl)piperidine-2,6-dione]
[1]
  DC50: 27.5 nM
  Dmax: 89.6%
[2]
  DC50: 2.88 nM
  DTC Dmax (%): 84.3%

## CCc1cc(Nc2ncc(Br)c(Nc3cnc4ccccc4c3P(C)(C)=O)n2)c(OC)cc1N1CCC(N2CCN(C(=O)C3CC4(CC(Nc5cc(F)c(C6CCC(=O)NC6=O)c(F)c5)C4)C3)CC2)CC1 (stereo not drawn) [Example 23, 3-(4-((6-(4-(1-(4-((5-bromo-4-((4-(dimethylphosphoryl)quinolin-3-yl)amino)pyrimidin-2-yl)amino)-2-ethyl-5-methoxyphenyl)piperidin-4-yl)piperazine-1-carbonyl)spiro[3.3]heptan-2-yl)amino)-2,6-difluorophenyl)piperidine-2,6-dione]
[1]
  DC50: 11.1 nM
  Dmax: 88.6%
[2]
  DC50: 2.22 nM
  DTC Dmax (%): 94.5%

## CCc1cc(Nc2ncc(Br)c(Nc3cnc4cccnc4c3P(C)(C)=O)n2)c(OC)cc1N1CCC(N2CCN(CCc3cc(F)c(C4CCC(=O)NC4=O)c(F)c3)CC2)CC1 (stereo not drawn) [Example 7, 3-(4-(2-(4-(1-(4-((5-bromo-4-((4-(dimethylphosphoryl)-1,5-naphthyridin-3-yl)amino)pyrimidin-2-yl)amino)-2-ethyl-5-methoxyphenyl)piperidin-4-yl)piperazin-1-yl)ethyl)-2,6-difluorophenyl)piperidine-2,6-dione]
[1]
  DC50: 45.3 nM
  Dmax: 82.7%
[2]
  DC50: 15.5 nM
  DTC Dmax (%): 93.86%

## CCc1cc(Nc2ncc(Br)c(Nc3cnc4ccccc4c3P(C)(C)=O)n2)c(OC)cc1N1CCC(N2CCN(C(=O)C3CN(c4ccc5c(c4)CN(C4CCC(=O)NC4=O)C5=O)C3)CC2)CC1 (stereo not drawn) [Example 16, 3-(5-(3-(4-(1-(4-((5-bromo-4-((4-(dimethylphosphoryl)quinolin-3-yl)amino)pyrimidin-2-yl)amino)-2-ethyl-5-methoxyphenyl)piperidin-4-yl)piperazine-1-carbonyl)azetidin-1-yl)-1-oxoisoindolin-2-yl)piperidine-2,6-dione]
[1]
  DC50: 5.05 nM
  Dmax: 89.7%
[2]
  DC50: 2.14 nM
  DTC Dmax (%): 96.98%

## CCc1cc(Nc2ncc(Br)c(Nc3cnc4ccccc4c3P(C)(C)=O)n2)c(OC)cc1N1CCC(N2CCN(CC3CN(c4cc(F)c(C5CCC(=O)NC5=O)c(F)c4)C3)CC2)CC1 (stereo not drawn) [Example 19, 3-(4-(3-((4-(1-(4-((5-bromo-4-((4-(dimethylphosphoryl)quinolin-3-yl)amino)pyrimidin-2-yl)amino)-2-ethyl-5-methoxyphenyl)piperidin-4-yl)piperazin-1-yl)methyl)azetidin-1-yl)-2,6-difluorophenyl)piperidine-2,6-dione]
[1]
  DC50: 8.02 nM
  Dmax: 89.4%
[2]
  DC50: 4.24 nM
  DTC Dmax (%): 97.44%

## CCc1cc(Nc2ncc(Br)c(Nc3cnc4ccccc4c3P(C)(C)=O)n2)c(OC)cc1N1CCC(N2CCN(CCc3cccc4c3cnn4C3CCC(=O)NC3=O)CC2)CC1 (stereo not drawn) [Example 12, 3-(4-(2-(4-(1-(4-((5-bromo-4-((4-(dimethylphosphoryl)quinolin-3-yl)amino)pyrimidin-2-yl)amino)-2-ethyl-5-methoxyphenyl)piperidin-4-yl)piperazin-1-yl)ethyl)-1H-indazol-1-yl)piperidine-2,6-dione]
[1]
  DC50: 68.8 nM
  Dmax: 89.1%
[2]
  DC50: 14.4 nM
  DTC Dmax (%): 91.82%

## CCc1cc(Nc2ncc(Br)c(Nc3cnc4ccccc4c3P(C)(C)=O)n2)c(OC)cc1N1CCC(N2CCN(C[C@H]3CCN(c4ccc5c(c4)CN(C4CCC(=O)NC4=O)C5=O)C3)CC2)CC1 (stereo partly drawn) [Example 4, 3-(5-((R)-3-((4-(1-(4-((5-bromo-4-((4-(dimethylphosphoryl)quinolin-3-yl)amino)pyrimidin-2-yl)amino)-2-ethyl-5-methoxyphenyl)piperidin-4-yl)piperazin-1-yl)methyl)pyrrolidin-1-yl)-1-oxoisoindolin-2-yl)piperidine-2,6-dione]
[1]
  DC50: 7.75 nM
  Dmax: 90.5%
[2]
  DC50: 3.94 nM
  DTC Dmax (%): 91.36%

## CCc1cc(Nc2ncc(Br)c(Nc3cnc4ccccc4c3P(C)(C)=O)n2)c(OC)cc1N1CCC(N2CCN(CCc3ccc(C4CCC(=O)NC4=O)c(F)c3)CC2)CC1 (stereo not drawn) [Example 2, 3-(4-(2-(4-(1-(4-((5-bromo-4-((4-(dimethylphosphoryl)quinolin-3-yl)amino)pyrimidin-2-yl)amino)-2-ethyl-5-methoxyphenyl)piperidin-4-yl)piperazin-1-yl)ethyl)-2-fluorophenyl)piperidine-2,6-dione]
[1]
  DC50: 146 nM
  Dmax: 85%
[2]
  DC50: 18.5 nM
  DTC Dmax (%): 86.75%

## CCc1cc(Nc2ncc(Br)c(Nc3cnc4ccccc4c3P(C)(C)=O)n2)c(OC)cc1N1CCC(N2CCN(CCC3CCN(c4cc(F)c(C5CCC(=O)NC5=O)c(F)c4)CC3)CC2)CC1 (stereo not drawn) [Example 1, 3-(4-(4-(2-(4-(1-(4-((5-bromo-4-((4-(dimethylphosphoryl)quinolin-3-yl)amino)pyrimidin-2-yl)amino)-2-ethyl-5-methoxyphenyl)piperidin-4-yl)piperazin-1-yl)ethyl)piperidin-1-yl)-2,6-difluorophenyl)piperidine-2,6-dione]
[1]
  DC50: 25 nM
  Dmax: 90.7%
[2]
  DC50: 10.4 nM
  DTC Dmax (%): 96.55%

## CCc1cc(Nc2ncc(Br)c(Nc3cnc4ccccc4c3P(C)(C)=O)n2)c(OC)cc1N1CCC(N2CCN(C(=O)C3CN(c4ccc5c(cnn5C5CCC(=O)NC5=O)c4)C3)CC2)CC1 (stereo not drawn) [Example 25, 3-(5-(3-(4-(1-(4-((5-bromo-4-((4-(dimethylphosphoryl)quinolin-3-yl)amino)pyrimidin-2-yl)amino)-2-ethyl-5-methoxyphenyl)piperidin-4-yl)piperazine-1-carbonyl)azetidin-1-yl)-1H-indazol-1-yl)piperidine-2,6-dione]
[1]
  DC50: 6.77 nM
  Dmax: 85%
[2]
  DC50: 1.8 nM
  DTC Dmax (%): 88.68%

## CCc1cc(Nc2ncc(Br)c(Nc3cnc4cc(F)ccc4c3P(C)(C)=O)n2)c(OC)cc1N1CCC(N2CCN(CCc3ccc4c(c3)oc(=O)n4C3CCC(=O)NC3=O)CC2)CC1 (stereo not drawn) [Example 153, 3-(6-(2-(4-(1-(4-((5-bromo-4-((4-(dimethylphosphoryl)-7-fluoroquinolin-3-yl)amino)pyrimidin-2-yl)amino)-2-ethyl-5-methoxyphenyl)piperidin-4-yl)piperazin-1-yl)ethyl)-2-oxobenzo[d]oxazol-3(2H)-yl)piperidine-2,6-dione]
[3]
  DC50: 0.8 nM
  H1975-clone#28 DTC Dmax (%): 77%

## CCc1cc(Nc2ncc(Br)c(Nc3cnc4c(F)cccc4c3P(C)(C)=O)n2)c(OC)cc1N1CCC(N2CCN(C(=O)C3CCN(c4ccc5c(c4)C(C)(C)C(=O)N5C4CCC(=O)NC4=O)CC3)CC2)CC1 (stereo not drawn) [Example 182, 3-(5-(4-(4-(1-(4-((5-bromo-4-((4-(dimethylphosphoryl)-8-fluoroquinolin-3-yl)amino)pyrimidin-2-yl)amino)-2-ethyl-5-methoxyphenyl)piperidin-4-yl)piperazine-1-carbonyl)piperidin-1-yl)-3,3-dimethyl-2-oxoindolin-1-yl)piperidine-2,6-dione]
[3]
  DC50: 0.8 nM
  H1975-clone#28 DTC Dmax (%): 56%
